Assay results as given in US7632952B2, “Benzothiazoles and the use thereof as medicaments” (Aventis Pharma S.A., priority 2004, dated 2009).
Counter-ions that a name gives are not always drawn.

Key:
CDK2/cyclin E = CDK2/cyclin E (Homo sapiens, UniProt P24941); assay: CDK2/cyclin E Flashplate test in 96-well format; type: biochemical; conditions: read-out: CDK2 IC50
Procedure: 1. Protocol CDK2/cyclin E:
Purification of the CDK2/cyclin E-(His)6 Complex by IMAC (Immobilized Metal Affinity Chromatography):
Two recombinant baculoviruses bearing the human sequences coding, respectively, for CDK2 and cyclin E (the latter comprising a C-terminal hexahistidine tag) are used to coinfect insect Sf21 cells. Two to three days after the start of coinfection, the cells are harvested by centrifugation and then stored at −40° C. until the time of use. After thawing and mechanical lysis of the cells, the complex present in the lysis supernatant is purified by affinity chromatography on nickel (IMAC), and stored at −80° C.
CDK2/cyclin E Flashplate Test in 96-Well Format
A format in 96-well plates coated with streptavidin is used to test the activity of the compounds on the kinase activity of CDK2/cyclin E.
To perform this test, the biotinylated peptide substrate, a fragment of the pRb protein (biotinyl-[…]-OH) is dissolved at a concentration of 1 mM in kinase buffer (HEPES/NaOH 50 mM, NaCl 1 mM, MgCl2 5 mM, pH 7.5) in order to constitute a stock solution stored at −20° C. in the form of 110 μl aliquots. On the day of the experiment, an aliquot of this solution is thawed and diluted in kinase buffer containing 1 mM of dithiothreitol, and added to the buffer extemporaneously, in order to obtain a concentration of 14.3 μM. 70 μl of this solution are added to each well of the Flashplate in order to obtain a final substrate concentration of 10 μM during the enzymatic reaction, performed in a final volume of the reaction medium of 100 μl (cf. below).
Intermediate dilutions of inhibitors (products of the invention) at various concentrations are prepared in DMSO from stock solutions at 10 mM in separate tubes. 1000 μM, 333.3 μM, 111.1 μM, 37.03 μM, 12.35 μM, 4.11 μM and 1.37 μM dilutions are thus prepared. 1 μl of each of these solutions (or 1 μl of DMSO for the controls) is transferred into the wells of the test plate.
Into each well are then added 19 μl of a solution of a mixture of adenosine triphosphate (ATP) and of ATPy^33P in the kinase buffer at a concentration of 5.26 μM of ATP total and 52.6 μCi/ml of ^33P. The enzymatic reaction is triggered by addition of 10 μl per well of a solution of CDK2/cyclin E at 200 nM in the kinase buffer containing 1 mM of dithiothreitol (or 10 μl of kinase buffer containing 1 mM of dithiothreitol for the reaction blanks).
After addition of all the reagents, the plate is incubated at 30° C. with orbital stirring at 650 rpm.
When the incubation is complete, the plate is washed three times with 300 μl per well of PBS (phosphate-buffered saline, pH=7.4, without calcium or magnesium, reference 10010-015, Gibco BRL). The incorporation of ^33P into the peptide is quantified by scintillation counting using a Packard Topcount.NXT machine. The inhibitory activity of the products of the invention is evaluated by measuring the inhibitory concentration that allows a 50% reduction in the enzymatic activity (IC50).

CDK4/cyclin D1 = CDK4/cyclin D1 (Homo sapiens, UniProt P11802); assay: CDK4/cyclin D1 Flashplate test in 96-well format; type: biochemical
CDK4/cyclin D1, sequence (P11802 whole entry): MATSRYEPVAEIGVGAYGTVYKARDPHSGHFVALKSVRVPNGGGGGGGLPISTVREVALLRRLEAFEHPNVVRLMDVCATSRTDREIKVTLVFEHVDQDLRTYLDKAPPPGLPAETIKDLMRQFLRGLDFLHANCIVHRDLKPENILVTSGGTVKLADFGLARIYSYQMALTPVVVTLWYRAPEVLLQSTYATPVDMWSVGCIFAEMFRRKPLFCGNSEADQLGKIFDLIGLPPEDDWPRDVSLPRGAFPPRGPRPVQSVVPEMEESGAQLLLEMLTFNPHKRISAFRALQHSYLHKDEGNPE
CDK4/cyclin D1, sequence (P24385 whole entry partner): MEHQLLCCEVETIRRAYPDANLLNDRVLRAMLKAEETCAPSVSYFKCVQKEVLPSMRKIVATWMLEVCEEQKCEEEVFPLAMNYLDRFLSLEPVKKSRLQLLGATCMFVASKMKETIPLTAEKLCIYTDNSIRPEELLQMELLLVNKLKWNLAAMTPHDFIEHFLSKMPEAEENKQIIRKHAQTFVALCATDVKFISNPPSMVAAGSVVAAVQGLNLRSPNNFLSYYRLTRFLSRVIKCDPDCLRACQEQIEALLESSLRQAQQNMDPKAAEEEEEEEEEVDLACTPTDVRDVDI
Procedure: 2. CDK4/cyclin D1 Protocol:
Purification of the CDK4-HA/cyclin D1-(His)6 Complex by IMAC (Immobilized Metal Affinity Chromatography):
Two recombinant baculoviruses bearing the human sequences coding, respectively, for CDK4-HA (C-terminal fusion with the hemaglutinin tag) and for cyclin D1-(His)6 are used to coinfect insect Sf9 cells. Sixty hours after the start of the coinfection, the cells are harvested by centrifugation and then frozen at −20° C. until the time of use.
CDK4/cyclin D1 Flashplate Test in 96-Well Format
A test in 96-well “Flashplate” plates coated with streptavidin is used to evaluate the inhibition of the CDK4/cyclin D1 kinase complex by the products of the invention. To perform this test, the biotinylated peptide substrate, a fragment of the pRb protein (biotinyl-[…]-amide) is dissolved at a concentration of 2 mM in kinase buffer (HEPES/NaOH 50 mM, NaCl 1 mM, MgCl2 5 mM, pH 7.5) in order to constitute a stock solution stored at −20° C. in the form of 110 μl aliquots. On the day of the experiment, an aliquot of this solution is thawed and diluted in kinase buffer containing 1 mM of dithiothreitol, and added to the buffer extemporaneously, in order to obtain a final peptide concentration of 2.571 μM. 70 μl of this solution are added to each well of the Flashplate in order to obtain a final substrate concentration of 1.8 μM during the enzymatic reaction, performed in a final volume of the reaction medium of 100 μl (cf. below). Intermediate dilutions of inhibitors (products of the invention) at various concentrations are prepared in DMSO from stock solutions at 10 mM in separate tubes. 1000 μM, 333.3 μM, 111.1 μM, 37.03 μM, 12.35 μM, 4.11 μM and 1.37 μM dilutions are thus prepared. 1 μl of each of these solutions (or 1 μl of DMSO for the controls) is then transferred into the wells of the test plate. Into each well are then added 19 μl of a solution of a mixture of adenosine triphosphate (ATP) and of ATPy^33P in the kinase buffer at a concentration of 5.26 μM of ATP total and 78.9 μCi/ml of ^33P. The enzymatic reaction is triggered by addition of 10 μl per well of a solution of CDK4/cyclin D1 at 250 nM in the kinase buffer containing 1 mM of dithiothreitol (or 10 μl of kinase buffer containing 1 mM of dithiothreitol for the reaction blanks).
After addition of all the reagents, the test plate is incubated at 30° C. with orbital stirring at 650 rpm. After the incubation, the plate is washed three times with 300 μl per well of PBS (phosphate-buffered saline, pH=7.4, without calcium or magnesium, reference 10010-015, Gibco BRL). The incorporation of ^33P into the substrate peptide is quantified by scintillation counting using a Packard Topcount.NXT machine. The inhibitory activity of the products of the invention is evaluated by measuring the inhibitory concentration that allows a 50% reduction in the enzymatic activity (IC50).

Aurora 2 = target: T1, Aurora 2 (Homo sapiens, UniProt O14965); assay: Aurora 2 kinase radioactivity scintillation test; type: biochemical
T1 construct: A complete recombinant Aurora 2 enzyme, the N-terminal end of which was labeled with histidine; His tag (N); made in house; host or cells: E. coli
T1 sequence (O14965 1-403): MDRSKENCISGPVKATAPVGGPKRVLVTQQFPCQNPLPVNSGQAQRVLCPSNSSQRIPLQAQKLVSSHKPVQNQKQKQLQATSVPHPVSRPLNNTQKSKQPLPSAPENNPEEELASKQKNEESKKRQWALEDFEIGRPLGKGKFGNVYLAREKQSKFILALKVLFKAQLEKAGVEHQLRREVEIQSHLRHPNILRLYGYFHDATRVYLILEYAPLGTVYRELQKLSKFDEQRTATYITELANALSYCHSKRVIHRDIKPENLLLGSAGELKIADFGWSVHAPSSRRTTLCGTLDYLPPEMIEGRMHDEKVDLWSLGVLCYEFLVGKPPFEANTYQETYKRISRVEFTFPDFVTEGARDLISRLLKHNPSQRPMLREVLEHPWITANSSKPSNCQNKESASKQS
Procedure: The inhibitory effect of the compounds toward the kinase Aurora 2 is determined via a radioactivity scintillation test.
A complete recombinant Aurora 2 enzyme, the N-terminal end of which was labeled with histidine, was expressed in E. coli and purified to a quality close to homogeneity.
The C-terminal fragment (Q1687-H2101) of an NuMA (nuclear protein which is associated with the Mitotic Apparatus) expressed in E. coli, and the N-terminal end of which was labeled with histidine, was purified by chromatography with nickel chelate and used as substrate in the Aurora 2 kinase test.
The kinase activity of Aurora 2 is measured by scintillation on a microplate saturated with nickel chelate (New England Nuclear, SMP107 model). Each well contains 100 μl of the following solution: 0.02 μM of Aurora 2; 0.5 μM of NuMA substrate; 1 μM of ATP supplemented with 0.5 μCi of ATP-[^33P]. The solutions are incubated for 45 minutes at 37° C. The test buffer is then removed and the wells are rinsed twice with 300 μl of kinase buffer. The radioactivity is measured in each well using a Packard Model Top Count NXT machine.
The background noise is measured in duplicate in wells containing the radioactive ATP alone containing buffered kinase treated in the same manner as for the other samples.
The activity of the control is determined by measuring in duplicate the radioactivity in the complete test mixture (ATP, Aurora 2 and NuMA substrate), in the absence of test compound.
The inhibition of the activity of Aurora 2 with a compound of the invention is expressed as a percentage of inhibition of the control activity in the absence of test compound. Staurosporin is added to each plate as inhibition control.

HeLa = HeLa proliferation; type: cell-based; conditions: Homo sapiens, read-out: HeLa proliferation EC50 (nM) DG

Compound | IC50 (CDK2/cyclin E) | IC50 (CDK4/cyclin D1) | IC50 (Aurora 2) | EC50 (HeLa)
CCN(CC)CCC(=O)Nc1nc2ccc(OS(=O)(=O)c3cccs3)cc2s1 [Example 33g, Thiophene-2-sulfonic acid 2-(3-diethyl-aminopropionylamino)benzothiazol-6-yl ester; compound with trifluoroacetic acid] | 5000 nM | > 10 µM | 1900 nM | 
O=C(Nc1nc2ccc(OS(=O)(=O)c3ccc(NCCCCn4cnc(-c5cccnc5)c4)cc3)cc2s1)C1CC1 [Example 13, 4-[4-(4-pyrid-3-ylimidazol-1-yl)butylamino]-benzenesulfonic 2-(cyclopropanecarbonylamino)benzothiazol-6-yl ester] | 678 nM | 6.86 µM |  | 841 nM
O=C(CCC1CCNCC1)Nc1nc2ccc(OS(=O)(=O)c3ccc(NCCNCCO)cc3)cc2s1 [Example 25c, 4-[2-(2-Hydroxyethyl-amino)-ethylamino] benzenesulfonic acid 2-(3-piperid-4-ylpropionyl-amino)benzothiazol-6-yl ester hydrochloride] | 2640 nM | 3.89 µM |  | > 12500 nM
CC(C)(O)CNc1ccc(S(=O)(=O)Oc2ccc3nc(NC(=O)CCCCCCCN)sc3c2)cc1 [Example 22d, 4-(2-Hydroxy-2-methyl-propylamino)benzene-sulfonic acid 2-(8-amino-octanoylamino)benzo-thiazol-6-yl ester hydro-chloride] | 69 nM | 0.708 µM |  | 5360 nM
CC(C)NCCNc1ccc(S(=O)(=O)Oc2ccc3nc(NC(=O)C4CCC4)sc3c2)cc1 [Example 77, 4-(2-isopropylaminoethylamino)benzenesulfonic acid (2-cyclobutanecarbonylamino)benzothiazol-6-yl ester; compound with trifluoroacetic acid] | 419 nM | 1.01 µM |  | 179 nM
O=C(CCC1CCNCC1)Nc1nc2ccc(OS(=O)(=O)c3cccs3)cc2s1 [Example 33a, Thiophene-2-sulfonic acid 2-(3-piperid-4-ylpropionylamino)benzothiazol-6-yl ester; compound with trifluoroacetic acid] | 3240 nM | > 10 µM | 436 nM | 
